Data from patent US20240251792A1, “WEED CONTROL METHOD” (SYNGENTA CROP PROTECTION AG, priority 2021, published 2024).
Where two headings read alike, the source gives them in different places.

Columns and labels:
Format in all cases: in vivo
ABUTH = experiment: Pre-emergence biological efficacy (Table 3); conditions: after 13 days; for pest or weed control at 1000 g/ha: Abutilon theophrasti, 312 h, read-out: evaluation (100=total damage to plant; 0=no damage to plant); for evaluation (100=total damage to plant; 0=no damage to plant): 1000 g/ha
In short: (§1)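 Pre-emergence spray one day after sowing; the compound, made up as a 50 g/l AMA-based formulation, was diluted with 0.2% Genapol X080. Visual damage rating 13 days later on a 0-100 scale, with glasshouse conditions of 24/18° C day/night and 15 h light.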

AMARE = experiment: Pre-emergence biological efficacy (Table 3); conditions: 1000 g/ha, after 13 days; for pest or weed control at 1000 g/ha: Amaranthus retroflexus, 312 h, read-out: evaluation (100=total damage to plant; 0=no damage to plant)
In short: as §1

ECHCG = experiment: Pre-emergence biological efficacy (Table 3); conditions: 1000 g/ha, after 13 days; for pest or weed control at 1000 g/ha: Echinochloa crus-galli, 312 h, read-out: evaluation (100=total damage to plant; 0=no damage to plant)
In short: as §1

IPOHE = experiment: Pre-emergence biological efficacy (Table 3); conditions: 1000 g/ha, after 13 days; for pest or weed control at 1000 g/ha: Ipomoea hederacea, 312 h, read-out: evaluation (100=total damage to plant; 0=no damage to plant)
In short: as §1

STEME = experiment: Pre-emergence biological efficacy (Table 3); conditions: after 13 days; for pest or weed control at 1000 g/ha: 312 h, read-out: evaluation (100=total damage to plant; 0=no damage to plant); for evaluation (100=total damage to plant; 0=no damage to plant): 1000 g/ha
In short: as §1

ZEAMX = experiment: Pre-emergence biological efficacy (Table 3); conditions: 1000 g/ha, after 13 days; for plant injury at 1000 g/ha: 312 h, read-out: evaluation (100=total damage to plant; 0=no damage to plant)
In short: as §1

weeds and/or crops = experiment: Post-emergence biological efficacy (Table 4); conditions: 1000 g/ha, evaluated after 13 days; for pest or weed control at 1000 g/ha: 312 h
In short: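 Weeds and crops were grown 14 days in a glasshouse, then sprayed post-emergence with compound formulated in acetone/F50 and diluted in 0.2% Genapol X080 to the final dose. Damage was scored after 13 days on a 0–100 scale, where 100 is total damage.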

[1] = STEME, read-out: damage to plant STEME (100=total damage; 0=no damage)
[2] = ZEAMX, read-out: damage to plant ZEAMX (100=total damage; 0=no damage)
[3] = Amaranthus retroflexus, AMARE, read-out: damage to plant AMARE (100=total damage; 0=no damage)
[4] = Echinochloa crus-galli, ECHCG, read-out: damage to plant ECHCG (100=total damage; 0=no damage)
[5] = Ipomoea hederacea, IPOHE, read-out: damage to plant IPOHE (100=total damage; 0=no damage)
[6] = Abutilon theophrasti, ABUTH, read-out: damage to plant ABUTH (100=total damage; 0=no damage)

SMILES	pest or weed control at 1000 g/ha (ABUTH)	pest or weed control at 1000 g/ha (AMARE)	pest or weed control at 1000 g/ha (ECHCG)	pest or weed control at 1000 g/ha (IPOHE)	pest or weed control at 1000 g/ha (STEME)	plant injury at 1000 g/ha (ZEAMX)	pest or weed control at 1000 g/ha (weeds and/or crops; [1])	pest or weed control at 1000 g/ha (weeds and/or crops; [2])	pest or weed control at 1000 g/ha (weeds and/or crops; [3])	pest or weed control at 1000 g/ha (weeds and/or crops; [4])	pest or weed control at 1000 g/ha (weeds and/or crops; [5])	evaluation (100=total damage to plant; 0=no damage to plant) (ABUTH)	evaluation (100=total damage to plant; 0=no damage to plant) (AMARE)	evaluation (100=total damage to plant; 0=no damage to plant) (ECHCG)	evaluation (100=total damage to plant; 0=no damage to plant) (IPOHE)	evaluation (100=total damage to plant; 0=no damage to plant) (STEME)	evaluation (100=total damage to plant; 0=no damage to plant) (ZEAMX)	damage to plant AMARE (100=total damage; 0=no damage) (weeds and/or crops; AMARE)	damage to plant ECHCG (100=total damage; 0=no damage) (weeds and/or crops; ECHCG)	pest or weed control at 1000 g/ha (weeds and/or crops; [6])	further results
O=C(O)C(F)(F)c1cccc2cccc(Cl)c12 [Compound 1-416, 2-(8-chloro-1-naphthyl)-2,2-difluoro-acetic acid]	80%	90%	40%	90%	80%	10%	90%	20%	80%	10%	80%										
Nc1ccc(Cl)c(Cl)c1C(F)(F)C(=O)[O-].[Li+] [Compound 5-80, Lithium;2-(6-amino-2,3-dichloro-phenyl)-2,2-difluoro-acetate]												0	0	0	0	0	0	20	0		damage to plant IPOHE (100=total damage; 0=no damage) (weeds and/or crops; IPOHE): 10; damage to plant STEME (100=total damage; 0=no damage) (weeds and/or crops; STEME): 10; damage to plant ZEAMX (100=total damage; 0=no damage) (weeds and/or crops; ZEAMX): 10
N.Nc1ccc(C(F)(F)C(=O)O)c(Cl)c1Cl [Compound 7-75, Ammonium;2-(4-amino-2,3-dichloro-phenyl)-2,2-difluoro-acetate]												70	70	30	20	70	0	70	60		damage to plant IPOHE (100=total damage; 0=no damage) (weeds and/or crops; IPOHE): 20; damage to plant STEME (100=total damage; 0=no damage) (weeds and/or crops; STEME): 90; damage to plant ZEAMX (100=total damage; 0=no damage) (weeds and/or crops; ZEAMX): 10
O=C(O)C(F)(F)c1cccc([N+](=O)[O-])c1Cl [Compound 7-237, Ammonium 2-(2-chloro-3-nitro-phenyl)-2,2-difluoro-acetate]	10%	0%	0%	50%	0%	0%	0%	0%	50%	10%	60%									0%	
O=C(O)C(F)(F)c1cccc(Cl)c1[N+](=O)[O-] [Compound 7-250, Ammonium 2-(3-chloro-2-nitro-phenyl)-2,2-difluoro-acetate]	90%	100%	30%	90%	100%	50%	100%	20%	100%	30%	80%									90%	
Nc1c(Cl)ccc(Cl)c1C(F)(F)C(=O)O [Compound 7-254, 2-(2-amino-3,6-dichlorophenyl)-2,2-difluoroacetic acid]	40%	20%	0%	10%	30%	10%	60%	20%	50%	0%	30%									30%	
